Patent US7320979B2, “N-[(piperazinyl)hetaryl]arylsulfonamide compounds” (Abbott GmbH & Co. KG., priority 2003, dated 2008)

How the values were obtained:
[1] = biological target: T1, human dopamine D3 receptors (Homo sapiens, UniProt P35462); assay: Dopamine D3 receptor binding, displacement of [125I]-iodosulpride; settings: membranes of HEK-293 cells stably expressing human D3 receptors; 0.1 nM [125I]-iodosulpride; 25° C., 60 minutes
T1 construct: expressed in transfected cells; host or cells: HEK-293
Procedure: (§1) The substance to be tested was either dissolved in methanol/Chremophor® (BASF-AG) or in dimethyl sulfoxide and then diluted with water to the desired concentration.
(§2) Each assay mixture was run in triplicate.
The incubation buffer contained 50 mM tris, 120 mM NaCl, 5 mM KCl, 2 mM CaCl2, 2 mM MgCl2 and 0.1% bovine serum albumin, 10 μM […] and 0.1% ascorbic acid (prepared fresh daily). The buffer was adjusted to pH 7.4 with HCl.
(§3) After having been incubated at 25° C. for 60 minutes, the assay mixtures were filtered through a Whatman GF/B glass fiber filter under vacuum using a cell collecting device. The filters were transferred to scintillation viols using a filter transfer system. After 4 ml of Ultima Gold® (Packard) have been added, the samples were shaken for one hour and the radioactivity was then counted in a Beta-Counter (Packard, Tricarb 2000 or 2200CA). The cpm values were converted into dpm using a standard quench series and the program belonging to the instrument.
(§4) The inhibition curves were analyzed by means of iterative nonlinear regression analysis using the Statistical Analysis System (SAS) which is similar to the “LIGAND” program described by Munson and Rodbard.

[2] = biological target: T2, human dopamine D2L receptors (long isoform) (Homo sapiens, UniProt P14416); assay: Dopamine D2L receptor binding, displacement of [125I] iodospiperone; settings: footnote: ratio of the Ki values of the D3 and D2L binding tests
T2 construct: expressed in transfected cells; host or cells: HEK-293
Procedure: as §1, §2
The incubation buffer contained 50 mM tris, 120 mM NaCl, 5 mM KCl, 2 mM CaCl2, 2 mM MgCl2 and 0.1% bovine serum albumin. The buffer was adjusted to pH 7.4 with HCl.
as §3, §4

T2 sequence (P14416 whole entry, canonical isoform): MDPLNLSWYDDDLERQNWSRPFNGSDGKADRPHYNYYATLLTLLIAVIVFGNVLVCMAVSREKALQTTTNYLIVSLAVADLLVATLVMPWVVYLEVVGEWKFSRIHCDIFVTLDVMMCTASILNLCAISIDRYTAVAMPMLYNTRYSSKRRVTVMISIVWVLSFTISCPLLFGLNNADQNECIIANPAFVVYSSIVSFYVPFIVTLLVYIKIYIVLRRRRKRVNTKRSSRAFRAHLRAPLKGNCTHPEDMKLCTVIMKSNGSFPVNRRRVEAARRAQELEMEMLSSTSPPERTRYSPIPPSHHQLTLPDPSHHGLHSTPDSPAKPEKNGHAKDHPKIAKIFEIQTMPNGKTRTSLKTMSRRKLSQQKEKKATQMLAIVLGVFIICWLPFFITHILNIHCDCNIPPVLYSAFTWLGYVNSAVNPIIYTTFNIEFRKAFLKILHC
T1 sequence (P35462 whole entry): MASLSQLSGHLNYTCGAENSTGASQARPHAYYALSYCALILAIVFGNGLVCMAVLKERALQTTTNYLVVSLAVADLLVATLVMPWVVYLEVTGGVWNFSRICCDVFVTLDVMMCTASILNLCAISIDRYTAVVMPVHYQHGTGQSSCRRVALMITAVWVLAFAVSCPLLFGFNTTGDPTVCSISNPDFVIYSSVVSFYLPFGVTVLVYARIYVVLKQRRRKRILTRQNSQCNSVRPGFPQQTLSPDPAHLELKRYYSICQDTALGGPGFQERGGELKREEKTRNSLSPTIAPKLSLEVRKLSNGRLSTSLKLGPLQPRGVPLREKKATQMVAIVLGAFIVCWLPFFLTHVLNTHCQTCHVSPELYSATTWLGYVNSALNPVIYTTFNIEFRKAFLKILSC

Molecule	Ki [1]	Selectivity vs. D2L [2]
CCCN1CCN(c2ccc(NS(=O)(=O)c3ccc(CC)cc3)cn2)C[C@@H]1C.Cl [Example 46, 4-Ethyl-N-[6-((S)-3-methyl-4-propyl-piperazin-1-yl)-pyridin-3-yl]-benzenesulfonamide, hydrochloride]	7.1 nM	50
C=Cc1ccc(S(=O)(=O)Nc2ccc(N3CCN(CCC)[C@@H](C)C3)nc2)cc1.Cl [Example 47, N-[6-((S)-3-methyl-4-propyl-piperazin-1-yl)-pyridin-3-yl]-4-vinylbenzenesulfonamide, hydrochloride]	6.1 nM	118
C=CCN1CCN(c2ccc(NS(=O)(=O)c3ccc(C(C)C)cc3)cn2)C[C@@H]1CC.Cl [Example 50, N-[6-((S)-4-Allyl-3-ethyl-piperazin-1-yl)-pyridin-3-yl]-4-isopropylbenzenesulfonamide, hydrochloride]	9.9 nM	57
CC(C)c1ccc(S(=O)(=O)Nc2cnc(N3CCNCC3)nc2)cc1 [Example 52, 4-Isopropyl-N-(2-piperazin-1-yl-pyrimidin-5-yl)-benzenesulfonamide]	14.2 nM	63
CCN1CCN(c2ncc(NS(=O)(=O)c3ccc(C(C)C)cc3)cn2)CC1.Cl [Example 53, N-[2-(4-Ethyl-piperazin-1-yl)-pyrimidin-5-yl]-4-isopropylbenzenesulfonamide, hydrochloride]	8.8 nM	149
CCCN1CCN(c2ncc(NS(=O)(=O)c3ccc(CC)cc3)cn2)C[C@@H]1C.Cl [Example 57, 4-Ethyl-N-[2-((S)-3-methyl-4-propyl-piperazin-1-yl)-pyrimidin-5-yl]-benzenesulfonamide, hydrochloride]	7.3 nM	234
C=Cc1ccc(S(=O)(=O)Nc2cnc(N3CCN(CCC)[C@@H](C)C3)nc2)cc1.Cl [Example 58, N-[2-((S)-3-Methyl-4-propyl-piperazin-1-yl)-pyrimidin-5-yl]-4-vinylbenzenesulfonamide, hydrochloride]	6.2 nM	254
C=CCN1CCN(c2ccc(OS(=O)(=O)c3ccc(C(C)C)cc3)cn2)CC1 [Example 59, 4-Isopropyl-benzenesulfonic acid 6-(4-allyl-piperazin-1-yl)-pyridin-3-yl ester]	16.2 nM	75
CCCN1CCN(c2ccc(OS(=O)(=O)c3ccc(C(C)C)cc3)cn2)CC1.Cl [Example 60, 4-Isopropyl-benzenesulfonic acid 6-(4-propyl-piperazin-1-yl)-pyridin-3-yl ester, hydrochloride]	17.4 nM	47
N-[2-(4-Allylpiperazin-1-yl)pyridin-5-yl]-4-(N-pyrrolidinyl)benzenesulfonamide fumarate [Example 42]	5.3 nM	33

Molecules with a lower Ki [1], results first:

Ki [1]	Selectivity vs. D2L [2]	Molecule
0.8 nM	21	C=CCN1CCN(c2ccc(NS(=O)(=O)c3ccc(C(C)C)cc3)c(OC)n2)C[C@@H]1C.Cl [Example 48, N-[6-((S)-4-Allyl-3-methyl-piperazin-1-yl)-2-methoxy-pyridin-3-yl]-4-isopropylbenzenesulfonamide, hydrochloride]
0.4 nM	19	CCCN1CCN(c2ccc(NS(=O)(=O)c3ccc(C(C)C)cc3)c(OC)n2)C[C@@H]1C.Cl [Example 49, 4-Isopropyl-N-[2-methoxy-6-((S)-3-methyl-4-propyl-piperazin-1-yl)-pyridin-3-yl]-benzenesulfonamide, hydrochloride]
3.1 nM	101	CCCN1CCN(c2ccc(NS(=O)(=O)c3ccc(C(C)C)cc3)cn2)C[C@@H]1CC.Cl [Example 51, N-[6-((S)-3-Ethyl-4-propyl-piperazin-1-yl)-pyridin-3-yl]-4-isopropylbenzenesulfonamide, hydrochloride]
2.3 nM	84	CCN1CCN(c2ncc(NS(=O)(=O)c3ccc(C(C)C)cc3)cn2)C[C@@H]1C.Cl [Example 54, N-[2-((S)-4-Ethyl-3-methyl-piperazin-1-yl)-pyrimidin-5-yl]-4-isopropylbenzenesulfonamide, hydrochloride]
2.9 nM	159	C=CCN1CCN(c2ncc(NS(=O)(=O)c3ccc(C(C)C)cc3)cn2)C[C@@H]1C.Cl [Example 55, N-[2-((S)-4-Allyl-3-methyl-piperazin-1-yl)-pyrimidin-5-yl]-4-isopropyl-benzenesulfonamide, hydrochloride]
1.6 nM	399	CCCN1CCN(c2ncc(NS(=O)(=O)c3ccc(C(C)C)cc3)cn2)C[C@@H]1C.Cl [Example 56, 4-Isopropyl-N-[2-((S)-3-methyl-4-propyl-piperazin-1-yl)-pyrimidin-5-yl]-benzenesulfonamide, hydrochloride]
